Values of other authors as cited in patent US20110311631A1, “CONTROLLED RELEASE PHARMACEUTICAL COMPOSITION WITH RESISTANCE AGAINST THE INFLUENCE OF ETHANOL EMPLOYING A COATING COMPRISING A POLYMER MIXTURE AND EXCIPIENTS” (EVONIK RÖHM GMBH, priority 2009, published 2011).
Counter-ions that a name gives are not always drawn. Like-named read-outs stand apart in the source and are kept apart here.

Conditions: USP classification, between 15° C. and 25° C.

| Compound | Solubility in water | Solubility in ethanol (HCl) | Solubility in ethanol (listed as diltiazem, HCl) | Solubility in ethanol (listed as metoprolol) | Solubility in ethanol | Solubility in ethanol (listed as theophyllin) | Solubility in ethanol (listed as naloxone) |
| --- | --- | --- | --- | --- | --- | --- | --- |
| Cn1c(=O)c2[nH]cnc2n(C)c1=O [Theophylline] | Slightly soluble (more than 100 to 1000) | – | – | – | Sparingly soluble (more than 30 to 100) | sparingly soluble | – |
| C=CCN1CC[C@]23c4c5ccc(O)c4O[C@H]2C(=O)CC[C@@]3(O)[C@H]1C5 [Naloxone] | Soluble (more than 10 to 30) | – | – | – | Slightly soluble (more than 100 to 1000) | – | slightly soluble |

The next lines start with results.

| Solubility in water | Solubility in ethanol (HCl) | Solubility in ethanol (listed as diltiazem, HCl) | Solubility in ethanol (listed as metoprolol) | Compound | Solubility in ethanol | Solubility in ethanol (listed as theophyllin) | Solubility in ethanol (listed as naloxone) |
| --- | --- | --- | --- | --- | --- | --- | --- |
| Freely soluble (from 1 to 10) | Sparingly soluble (more than 30 to 100) | sparingly soluble | – | COc1ccc([C@@H]2Sc3ccccc3N(CCN(C)C)C(=O)[C@@H]2OC(C)=O)cc1 [Diltiazem HCl] | – | – | – |
| Freely soluble (from 1 to 10) | – | – | sparingly soluble | COCCc1ccc(OCC(O)CNC(C)C)cc1 (centres unmarked) [Metoprolol succinate] | Sparingly soluble (more than 30 to 100) | – | – |
| Practically insoluble (more than 10.000) | – | – | – | NC(=O)N1c2ccccc2C=Cc2ccccc21 [Carbamazepine] | Soluble (more than 10 to 30) | – | – |
